Measured values: US8722681B2, “N-sulfonyl thiazolylpiperazine derivatives and related N-sulfonyl heterocyclic derivatives for the treatment of neuro degenerative diseases” (NV reMYND, priority 2007, dated 2014)

Test system: M17-SYNwt cells
Assay: α-synuclein cytotoxicity assay (LDH leakage from paraquat-treated M17-SYNwt cells)
Format: cell-based, human
Conditions: for EC50: M17-SYNwt cells, paraquat 32 mM, 40 hours, LDH activity; for % I (percentage inhibition) / % inh. (percentage inhibition): inhibition of synuclein toxicity at most effective concentration relative to untreated paraquat cells
Source text: An α-synuclein expression plasmid was constructed by sub-cloning the NcoI/XhoI fragment from 212T-SYN(WT) (Griffioen et al., Biochem Biophys Acta (2006) 1762(3):312-318) containing the cDNA of human wild type α-synuclein correspondingly into a standard mammalian expression vector pcDNA3.1 resulting in plasmid pcDNA3.1-SYNwt. Plasmid pcDNA3.1 and pcDNA3.1-SYNwt were transfected to human neuroblastoma cells (ATCC No. CRL-2267) and independent clonal lines with the plasmids stably integrated into the genome were selected. […] Over-expression of α-synuclein in M17-SYNwt cell lines was confirmed by Western analysis.
Due to the high levels of α-synuclein M17-SYNwt cells are exquisitely sensitivity to paraquat, a well-known risk factor of synuclein-dependent neuronal degeneration. In degenerated or dead cells lactate dehydrogenase (LDH) is leaked out of the cells into the extracellular environment due to a loss of plasma-membrane integrity. This principle was used to determine cytotoxicity by quantifying the level of leaked LDH into the growth medium.
The detailed method for determining α-synuclein cytotoxicity was as follows: From appropriate precultures of M17 and M17-SYN cells were seeded at 50000 cells/cm^2 in Optimem Reduced Serum without phenol red (InVitrogen, Cat. 31985-047) supplemented with 5% fetal calf serum, 1 mM sodium pyruvate, 1×non-essential amino acids, 500 μg/ml G418 0.5×antibiotic/antimycotic. After 3 hours of incubation at 37° C./5% CO2 paraquat was added to the cells (final concentration of 32 mM), together with the test compound and the cells were further incubated for 40 hours. Subsequently, LDH activity was determined using Promega Cytotox 96 Non-Radioactive cytotoxicity assay, (Cat. G1780) according the supplier's instructions.
This α-synuclein expressing neuroblastoma cells made it possible to assess the ability of novel compounds to counteract α-synuclein cytotoxicity. […] Since this method monitors leaked LDH from degenerated or dead cells only non-toxic compounds will be identified as active inhibitors of α-synuclein-mediated cytotoxicity. Lack of toxicity is an important characteristic for compounds to be used as a medicament to patients in need. A compound was considered to be active in this test when it inhibits α-synuclein cytotoxicity by more than 25% relative to untreated M17-SYNwt cells at a concentration of 20 μg/mL or lower. In the experiments, the control group consisted of M17-SYNwt cells treated with DMSO, the untreated paraquat group consisted of M17-SYNwt cells treated with paraquat and DMSO, and the treated paraquat group consisted of M17-SYNwt cells treated with paraquat and the test compound dissolved in DMSO.
Percent inhibition was calculated as the synuclein toxicity inhibition by the compound in treated paraquat cells, relative to the synuclein cytotoxicity in untreated paraquat cells.
The compounds from table 1 were screened for activity using the α-synuclein cytotoxicity assay as described above. Dose responses were carried out on all compounds found to be active (10 point curves in duplicate).

Row | SMILES | EC50 (Homo sapiens, Table 1) [nM] | % I (percentage inhibition) (Table 1) [%] | EC50 (Homo sapiens, Table 2) [nM] | % inh. (percentage inhibition) (Table 2) [%] | EC50 (Table 2) [nM]
1 | CCCc1sc(N2CCN(S(=O)(=O)c3ccc(C)cc3)CC2)nc1-c1ccccc1 [Compound 4] | 203 | 61 | – | – | –
2 | O=S(=O)(c1cccnc1)N1CCN(c2nc(-c3ccc(F)cc3)cs2)CC1 [Compound 54, 1-(4-(4-fluorophenyl)thiazol-2-yl)-4-(pyridin-3-ylsulfonyl)piperazine] | – | – | 1230 | 91 | –
3 | COc1ccc(S(=O)(=O)N2CCN(c3nc(Cc4cccc(C#N)c4)cs3)CC2)cc1 [Compound 12, 3-((2-(4-(4-methoxyphenylsulfonyl)piperazin-1-yl)thiazol-4-yl)methyl)benzonitrile] | – | – | 3.2 | 66 | –
4 | COc1ccc(S(=O)(=O)N2CCN(c3nc(Cc4cccs4)cs3)CC2)cc1 [Compound 10, 1-(4-methoxyphenylsulfonyl)-4-(4-(thiophen-2-ylmethyl)thiazol-2-yl)piperazine] | – | – | 12 | 93 | –
5 | COc1ccc(-c2csc(N3CCN(S(=O)(=O)c4ccc(OC)c(OC)c4)CC3)n2)cc1 [Compound 38, 1-(3,4-dimethoxyphenylsulfonyl)-4-(4-(4-methoxyphenyl)thiazol-2-yl)piperazine] | – | – | 1060 | 65 | –
6 | O=S(=O)(c1ccc(Br)cc1)N1CCN(c2nc(-c3ccc(F)cc3)cs2)CC1 [Compound 7] | 327 | 94 | – | – | –
7 | O=[N+]([O-])c1cccc(-c2csc(N3CCN(S(=O)(=O)c4ccc5c(c4)OCCO5)CC3)n2)c1 [Compound 72, 1-(2,3-dihydrobenzo[b][1,4]dioxin-6-ylsulfonyl)-4-(4-(3-nitrophenyl)thiazol-2-yl)piperazine] | – | – | 23500 | 85 | –
8 | COc1ccc(-c2csc(N3CCN(S(=O)(=O)c4ccc5c(c4)OCCO5)CC3)n2)cc1 [Compound 70, 1-(2,3-dihydrobenzo[b][1,4]dioxin-6-ylsulfonyl)-4-(4-(4-methoxyphenyl)thiazol-2-yl)piperazine] | – | – | 1960 | 83 | –
9 | COc1ccc(S(=O)(=O)N2CCC(c3nc(Cc4cccc(OC)c4)cs3)CC2)cc1 [Compound 31, 4-(4-(3-methoxybenzyl)thiazol-2-yl)-1-(4-methoxyphenylsulfonyl)piperidine] | – | – | 6.6 | 66 | –
10 | COc1ccc(S(=O)(=O)N2CCN(c3nc(-c4ccc(F)cc4)cs3)CC2)cc1 [Compound 1, 1-[4-(4-fluorophenyl)-1,3-thiazol-2-yl]-4-[(4-methoxyphenyl)-sulfonyl]-piperazine] | 24 | 100 | – | – | –
11 | COc1cccc(Cc2csc(N3CCN(S(=O)(=O)c4ccc(C)cc4)CC3)n2)c1 [Compound 28, 1-(4-(3-methoxybenzyl)thiazol-2-yl)-4-tosylpiperazine] | – | – | 1890 | 165 | –
12 | COc1cccc(-c2csc(N3CCN(S(=O)(=O)c4ccc(F)cc4)CC3)n2)c1 [Compound 35, 1-(4-fluorophenylsulfonyl)-4-(4-(3-methoxyphenyl)thiazol-2-yl)piperazine] | – | – | – | 90 | 216
13 | COc1cccc(Cc2csc(N3CCN(S(=O)(=O)c4ccccn4)CC3)n2)c1 [Compound 21, 1-(4-(3-methoxybenzyl)thiazol-2-yl)-4-(pyridin-2-ylsulfonyl)piperazine] | – | – | 2440 | 116 | –
14 | Cc1ccc(-c2csc(N3CCN(S(=O)(=O)N4CCCC4)CC3)n2)cc1 [Compound 62, 1-(4-(4-methylphenyl)thiazol-2-yl)-4-(pyrrolidin-1-ylsulfonyl)piperazine] | – | – | 1930 | 112 | –
15 | O=S(=O)(N1CCCC1)N1CCN(c2nc(-c3ccccc3)cs2)CC1 [Compound 61, 1-(4-phenylthiazol-2-yl)-4-(pyrrolidin-1-ylsulfonyl)piperazine] | – | – | 1740 | 127 | –
16 | O=S(=O)(c1ccc(Cl)s1)N1CCN(c2nc(-c3ccccc3)cs2)CC1 [Compound 56, 1-(5-chlorothiophen-2-ylsulfonyl)-4-(4-phenylthiazol-2-yl)piperazine] | – | – | 752 | 98 | –

Row | SMILES | EC50 (Homo sapiens, Table 1) [nM] | % I (percentage inhibition) (Table 1) [%] | EC50 (Homo sapiens, Table 2) [nM] | % inh. (percentage inhibition) (Table 2) [%] | EC50 (Table 2) [nM]
17 | COc1ccc(Cc2csc(N3CCN(S(=O)(=O)c4ccc(OC)cc4)CC3)n2)cc1 [Compound 14, 1-(4-(4-methoxybenzyl)thiazol-2-yl)-4-(4-methoxyphenylsulfonyl)piperazine] | – | – | 46.6 | 90 | –
18 | COc1ccc(-c2csc(N3CCN(S(=O)(=O)c4cc(OC)ccc4OC)CC3)n2)cc1 [Compound 39, 1-(2,5-dimethoxyphenylsulfonyl)-4-(4-(4-methoxyphenyl)thiazol-2-yl)piperazine] | – | – | 6750 | 107 | –
19 | COc1ccc(S(=O)(=O)N2CCC(c3nc(-c4ccc(F)cc4)cs3)CC2)cc1 [Compound 48, 4-(4-(4-fluorophenyl)thiazol-2-yl)-1-(4-methoxyphenylsulfonyl)piperidine] | – | – | 49.4 | 90 | –
20 | O=[N+]([O-])c1ccc(-c2csc(N3CCN(S(=O)(=O)c4cccs4)CC3)n2)cc1 [Compound 60, 1-(thiophen-2-ylsulfonyl)-4-(4-(4-nitrophenyl)thiazol-2-yl)piperazine] | – | – | 1240 | 79 | –
21 | COc1cccc(Cc2csc(N3CCN(S(=O)(=O)c4ccc(C#N)cc4)CC3)n2)c1 [Compound 29, 4-(4-(4-(3-methoxybenzyl)thiazol-2-yl)piperazin-1-ylsulfonyl)benzonitrile] | – | – | 1270 | 42 | –
22 | Cc1ccc(S(=O)(=O)N2CCN(c3nc(-c4ccccc4)cs3)CC2)cc1 [Compound 44, 1-(4-phenylthiazol-2-yl)-4-tosylpiperazine] | – | – | 197 | 72 | –
23 | COc1ccc(S(=O)(=O)N2CCN(Cc3nc(-c4ccc(F)cc4)cs3)CC2)cc1 [Compound 47, 1-((4-(4-fluorophenyl)thiazol-2-yl)methyl)-4-(4-methoxyphenylsulfonyl)piperazine] | – | – | 39.9 | 86 | –
24 | COc1ccc(F)cc1S(=O)(=O)N1CCN(c2nc(-c3ccc(C)cc3)cs2)CC1 [Compound 50, 1-(5-fluoro-2-methoxyphenylsulfonyl)-4-(4-(4-methylphenyl)thiazol-2-yl)piperazine] | – | – | 1770 | 104 | –
25 | O=S(=O)(C1CCCCC1Br)N1CCN(c2nc(-c3ccc(F)cc3)cs2)CC1 (centres unmarked) [Compound 8] | 568 | 88 | – | – | –
26 | O=S(=O)(c1ccc(F)cc1)N1CCN(c2nc(-c3ccc(F)cc3)cs2)CC1 [Compound 9] | 833 | 81 | – | – | –
27 | COc1cc(F)ccc1S(=O)(=O)N1CCN(c2nc(-c3ccc(C)cc3)cs2)CC1 [Compound 51, 1-(4-fluoro-2-methoxyphenylsulfonyl)-4-(4-(4-methylphenyl)thiazol-2-yl)piperazine] | – | – | 2500 | 88 | –
28 | COc1ccc(OC)c(S(=O)(=O)N2CCN(c3nc(-c4ccc(Cl)cc4)cs3)CC2)c1 [Compound 37, 1-(4-(4-chlorophenyl)thiazol-2-yl)-4-(2,5-dimethoxyphenylsulfonyl)piperazine] | – | – | 1290 | 74 | –
29 | O=S(=O)(c1ccc2ccccc2c1)N1CCN(c2nc(-c3ccc(Cl)cc3)cs2)CC1 [Compound 75, 1-(4-(4-chlorophenyl)thiazol-2-yl)-4-(naphthalen-2-ylsulfonyl)piperazine] | – | – | 870 | 84 | –
30 | Cc1n[nH]c(C)c1S(=O)(=O)N1CCN(c2nc(-c3ccc(F)cc3)cs2)CC1 [Compound 55, 1-(4-(4-fluorophenyl)thiazol-2-yl)-4-(3,5-dimethyl-1H-pyrazol-4-ylsulfonyl)piperazine] | – | – | 657 | 91 | –
31 | COc1cccc(-c2csc(N3CCN(S(=O)(=O)c4ccc(F)cc4)CC3)n2)c1 [Compound 5] | 216 | 90 | – | – | –
